Several values for one entry are separate records, joined by “and”; a condition that tells them apart may be missing. Equal entries are not always repeated. Where two headings read alike, the source gives them in different places.
Legend:
SK-MEL-28 = assay: OncoPanel cell proliferation assay, SK-MEL-28; format: cell-based, human
Protocol: (§1) Cells were grown in RPMI 1640, 10% FBS, 2 mM L-alanyl-L-glutamine, 1 mM Na pyruvate, or a special medium. Cells were seeded into 384-well plates and incubated in a humidified atmosphere of 5% CO2 at 37° C. Compounds were added the day following cell seeding. At the same time, a time zero untreated cell plate was generated. After a 3-day incubation period, cells were fixed and stained to allow fluorescence imaging of nuclei. Compounds (1 mM stock solutions) were serially diluted in half-log steps from the highest test concentration ([…]), and assayed over 10 concentrations with a maximum assay concentration of 0.1% DMSO. Automated fluorescence microscopy was carried out using a Molecular Devices ImageXpress Micro XL high-content imager, and images were collected with a 4× objective. 16-bit TIFF images were acquired and analyzed with MetaXpress 5.1.0.41 software.
(§2) Cell proliferation was measured by the fluorescence intensity of an incorporated nuclear dye. The output is referred to as the relative cell count, where the measured nuclear intensity is transformed to percent of control (POC) using the following formula: […]
(§3) Cellular response parameters were calculated using nonlinear regression to a sigmoidal single-site dose response model:
(§4) EC50 is the test compound concentration at the curve inflection point or half the effective response (parameter C of the fitted curve solution). GI50 is the concentration needed to reduce the observed growth by half (midway between the curve maximum and the time zero value). “Cell Count Activity Area” is an estimate of the integrated area above the curve (Barretina, et al. The Cancer Cell Line Encyclopedia enables predictive modelling of anticancer drug sensitivity. Nature 483: 603-607). […] In rare instances, values <0 or >10 may be observed. […] Curve-fitting, calculations, and report generation was performed using a custom data reduction engine and MathIQ based software (AIM).

TORC1 = biological target: T1, TORC1 (Homo sapiens, UniProt P42345+P62942); assay: TORC1 inhibition in PC3 cells (Western blot, phospho-rpS6); format: cell-based
T1 construct: endogenous in cells; host or cells: PC3 cells
Protocol: Equal amounts of protein were resolved by SDS-PAGE and transferred to nitrocellulose membrane using the Invitrogen Nu-Page system. […] The following day, blots were washed 3 times in TBST, incubated for 2 hr with secondary antibodies (donkey anti rabbit hrp conjugated), and finally washed an additional 3 times in TBST. ECL Prime (Amersham) was used to detect the proteins of interest and ImageJ was used to quantify blots.

A101D = assay: OncoPanel cell proliferation assay, A101D; format: cell-based, human
Protocol: as §1, §2, §3, §4

PC-3 = assay: OncoPanel cell proliferation assay, PC-3
Protocol: Cells were seeded into 384-well plates and incubated in a humidified atmosphere of 5% CO2 at 37° C. Compounds were added the day following cell seeding. At the same time, a time zero untreated cell plate was generated. After a 3-day incubation period, cells were fixed and stained to allow fluorescence imaging of nuclei. Compounds (1 mM stock solutions) were serially diluted in half-log steps from the highest test concentration (1 micromol), and assayed over 10 concentrations with a maximum assay concentration of 0.1% DMSO. Automated fluorescence microscopy was carried out using a Molecular Devices ImageXpress Micro XL high-content imager, and images were collected with a 4× objective. 16-bit TIFF images were acquired and analyzed with MetaXpress 5.1.0.41 software.
GI50 is the concentration needed to reduce the observed growth by half (midway between the curve maximum and the time zero value). […] In rare instances, values <0 or >10 may be observed. […] Curve-fitting, calculations, and report generation was performed using a custom data reduction engine and MathIQ based software (AIM).

[1] = at 30 days
Description: Tumor growth was monitored daily. […] Significance was set at p≤0.05.

[2] = Whole blood concentrations in mice after IP dosing (LC-MS/MS); format: in vivo, mouse; settings: 2 mg/kg IP QD × 3 days, Day 1; for Formula II Concentrations in Mouse Whole Blood, individual animals: animals 7, 8, 9
Protocol: Shown below are whole blood concentrations following administration of the compound of Formula II to mice. The compound of Formula II was administered to mice at 2 mg/kg or 10 mg/kg and the concentration of the compound in whole blood determined. These determinations were made using protein precipitation, liquid chromatography (LC), and mass spectrometry (MS/MS). Ten μl aliquots of whole blood and matrix calibration standards were distributed in a 96-well plate; 10 μl aliquots of blank matrix for matrix blanks and control blanks were included as controls. Ten μl of water was added to each sample followed by vortexing. One hundred sixty […] of internal standard was added to each sample except the matrix blanks; 160 μl 70:30 water:acetonitrile (ACN) was added to matrix blanks. This was followed by a […]. One hundred fifty μl of the resultant supernatant was then transferred to a new 96-well plate and the samples blown to dryness at 35° C. The resultant product was then reconstituted with 90 μl ACN.

[3] = Homo sapiens, read-out: Cell Count EC50
[4] = Homo sapiens, read-out: Cell Count GI50
[5] = Homo sapiens, read-out: Cell Count IC50

CO[C@H]1C[C@@H]2CC[C@@H](C)[C@@](O)(O2)C(=O)C(=O)N2CCCC[C@H]2C(=O)O[C@H]([C@H](C)C[C@H]2C[C@H]3C[C@@H]2C[C@@H]3O)CC(=O)[C@H](C)/C=C(\C)[C@@H](O)[C@@H](OC)C(=O)[C@H](C)C[C@H](C)/C=C/C=C/C=C/1C [Formula II, C37-[(1R,2S,4R,5S)-5-hyhroxybicyclo[2.2.1]heptane] rapamycin]
Cell Count Activity Area (SK-MEL-28): 2.68
Relative cell count (%) Mean (SK-MEL-28; 1.00E+00 microM): 60.6%
Relative cell count (%) Mean (SK-MEL-28; 1.00E-01 microM): 69.8%
Relative cell count (%) Mean (SK-MEL-28; 1.00E-02 microM): 84.3%
Relative cell count (%) Mean (SK-MEL-28; 1.00E-03 microM): 91.6%
Relative cell count (%) Mean (SK-MEL-28; 1.01E-04 microM): 110.7%
Relative cell count (%) Mean (SK-MEL-28; 3.16E-01 microM): 66.4%
Relative cell count (%) Mean (SK-MEL-28; 3.17E-02 microM): 71.0%
Relative cell count (%) Mean (SK-MEL-28; 3.17E-03 microM): 85.4%
Relative cell count (%) Mean (SK-MEL-28; 3.18E-04 microM): 94.6%
Relative cell count (%) Mean (SK-MEL-28; 3.18E-05 microM): 102.8%
EC50 (SK-MEL-28; Homo sapiens, Skin, Melanoma, summary Table 5, read-out: EC50): 4.8 nM
EC50 (SK-MEL-28; [3]): 4.71 nM
GI50 (SK-MEL-28; [4]): 38.2 nM
IC50 (SK-MEL-28; [5]): > 1000 nM
TORC1/TORC2 Selectivity (TORC1): 50x
selectivity of mTORC1 vs mTORC2 inhibition compared with the polyketide disclosed in U.S. Pat. No. 9,382,266 (in words) (TORC1): less selectively
IC50 (TORC1; Western blot): 0.099 nM
Cell Count Activity Area (A101D): 3.79
Relative cell count (%) Mean (A101D; 1.00E+00 microM): 52.5%
Relative cell count (%) Mean (A101D; 1.00E-01 microM): 54.3%
Relative cell count (%) Mean (A101D; 1.00E-02 microM): 62.0%
Relative cell count (%) Mean (A101D; 1.00E-03 microM): 75.1%
Relative cell count (%) Mean (A101D; 1.01E-04 microM): 96.5%
Relative cell count (%) Mean (A101D; 3.16E-01 microM): 59.6%
Relative cell count (%) Mean (A101D; 3.17E-02 microM): 56.2%
Relative cell count (%) Mean (A101D; 3.17E-03 microM): 71.5%
Relative cell count (%) Mean (A101D; 3.18E-04 microM): 82.7%
Relative cell count (%) Mean (A101D; 3.18E-05 microM): 100.8%
EC50 (A101D; [3]): 0.366 nM
GI50 (A101D; [4]): 1.36 nM
IC50 (A101D; [5]): 56.2 nM
EC50 (PC-3; Homo sapiens, PC-3, read-out: Cell Count EC50): 0.637 nM
GI50 (PC-3; Homo sapiens, PC-3, read-out: Cell Count GI50): 3.99 nM
IC50 (PC-3; Homo sapiens, PC-3, read-out: Cell Count IC50): 18.4 nM
Cell Count Activity Area (PC-3; PC-3): 3.80
Relative cell count (%) Mean (PC-3; PC-3, 1.00E+00 microM): 42.2%
Relative cell count (%) Mean (PC-3; PC-3, 1.00E-01 microM): 50.3%
Relative cell count (%) Mean (PC-3; PC-3, 1.00E-02 microM): 59.2%
Relative cell count (%) Mean (PC-3; PC-3, 1.00E-03 microM): 70.9%
Relative cell count (%) Mean (PC-3; PC-3, 1.01E-04 microM): 98.3%
Relative cell count (%) Mean (PC-3; PC-3, 3.16E-01 microM): 47.6%
Relative cell count (%) Mean (PC-3; PC-3, 3.17E-02 microM): 50.8%
Relative cell count (%) Mean (PC-3; PC-3, 3.17E-03 microM): 61.5%
Relative cell count (%) Mean (PC-3; PC-3, 3.18E-04 microM): 73.9%
Relative cell count (%) Mean (PC-3; PC-3, 3.18E-05 microM): 96.9%
Percent Survival [1]: 100%
Percent Survival ([1]; listed as Formula I): 100%
Formula II Concentrations in Mouse Whole Blood, Mean ([2]; 1.00 hrs): 383 ng/mL
Formula II Concentrations in Mouse Whole Blood, individual animals ([2]; 1.00 hrs): 452 ng/mL and 380 ng/mL and 317 ng/mL
Formula II Concentrations in Mouse Whole Blood, Mean ([2]; 2.00 hrs): 403 ng/mL
Formula II Concentrations in Mouse Whole Blood, individual animals ([2]; 2.00 hrs): 415 ng/mL (2×) and 378 ng/mL
Formula II Concentrations in Mouse Whole Blood, Mean ([2]; 6.00 hrs): 464 ng/mL
Formula II Concentrations in Mouse Whole Blood, individual animals ([2]; 6.00 hrs): 382 ng/mL and 520 ng/mL and 490 ng/mL
Formula II Concentrations in Mouse Whole Blood, individual animals ([2]; 24.0 hrs): 18.4 ng/mL and 14.7 ng/mL

From patent US20200131196A1 (Mount Tam Therapeutics, Inc., priority 2017, published 2020)
